Common to all, as to type: cell-based, mouse
One test relates to neural progenitor cells. The test can be described thus: Calcium imaging (fluo-4/am) of Ca2+i responses in 1-2 day cultures. Conditions: for increase of Ca2+i by purine receptor agonists: 1-2 day cultures; for effect of removal of extracellular Ca2+ on the Ca2+ response to the agonist: extracellular Ca2+ removed. On the procedure: Neuronal cultures were prepared from E16 mice and maintained as earlier described (Nedergaard, M., Science 263:1768-1771 (1994), which is hereby incorporated by reference in its entirety). Cytosine arabinoside (20 μM) was added at 48 hr to eliminate proliferating cells. Neural progenitor cells were isolated from E13 mice as previously described (Morshead et al., Neuron 13:1071-82 (1994); Reynolds et al., Science 255:1707-10 (1992), which are hereby incorporated by reference in their entirety). The forebrains were collected in a Ca/Mg-free Hank's buffered saline solution (HBSS) and dissociated in 0.25% trypsin. The cells were resuspended at 4×10^6 cells/ml in DMEM/F12/N2 containing 10 ng/ml bFGF and 10 ng/ml EGF (Sigma, St. Louis, Mo.). The cells were plated at 4 ml/dish into 100 mm suspension culture plates and incubated at 37° C. in 5% CO2. The cells were passaged 2 to 3 times before use.
To test the idea that purinergic signaling is restricted to undifferentiated neural precursor cells, Ca^2+ responses to ATP were first examined as a function of time after plating either neural stem cells or differentiated neurons. Cultured mouse cortical neurons in near-pure neuronal cultures were loaded with fluo-4/am and exposed to either ATP (100 μM) or K^+ (60 mM). […] The responses to ATP fell by day 3 and were absent 9 days after plating. […] By 30 hours after plating, MAP2-defined neurons expressed substantially less P2Y receptor-immunoreactivity than did neighboring, MAP2^− cells (FIG. 1C). By 5 days, P2Y-immunoreactivity was restricted to GFAP^+ astrocytes.
ATP-induced Ca^2+i increments were inhibited by both suramin (100 μM) and reactive blue (RB; 30 μM), two mechanistically-unrelated inhibitors of purinergic signaling (FIG. 1D).

In the next test the test system is neural stem cells. In words: BrdU incorporation assay (mitotic index). Conditions: 4 hrs incubation. On the procedure: For the BrdU incorporation assay, the cultures were incubated for 4 hrs in BrdU (Sigma, 10 μg/ml, 4 hrs), fixed and stained with rat monoclonal anti-BrdU (MAS250C, Harlan Sera-lab, Loughborough, UK; 1:200) and Cy3-conjugated goat anti-rat antibodies (Jackson ImmunoResearch, 1:300). Nuclei were visualized by Sytox (Molecular Probes, Inc.), and the mitotic index was calculated as the ratio of BrdU/Sytox positive nuclei. Limiting dilution analysis was performed as previously described (Keyoung et al., Nature Biotechnology 19:843-850 (2001); Uchida et al., Proc. Natl. Acad. Sci. 97:14720-14725 (2000), which are hereby incorporated by reference in their entirety).
Purinergic signaling has long-term effects on proliferation of numerous cell types, including rapidly replicating transformed cell lines (Burnstock, G., Arterioscler Thromb Vasc Biol 22:364-73 (2002); Michoud et al., Am J Respir Cell Mol Biol 27:732-8 (2002); Sauer et al., J Cell Sci 115:3265-73 (2002); Tu et al., Br J Pharmacol 129:1481-9 (2000), which are hereby incorporated by reference in their entirety). To better define the mitogenic effects of P2Y on neural progenitor cells, the mitogenic effects of ATP, its analogs, and its dephosphorylated metabolites were compared. To this end, BrdU incorporation by neural stem cells was quantified after 4 hrs incubation in each treatment.
A general note: Dividing cells build labelled thymidine or BrdU into new DNA.

The test system of test [1] is neuroepithelial cells / neural spheres. In words: ATP release, luciferin-luciferase bioluminescence. As to the method:
ATP release from living cells were dynamically imaged by chemiluminescence as described in (Arcuino et al., Proc Natl Acad Sci USA 99:9840-5 (2002), which is hereby incorporated by reference in its entirety). Neural spheres were after a light spin resuspended in Ringer's solution and mounted in a temperature controlled Leiden chamber. Luciferase (0.132 mg/ml) and luciferin (0.332 mg/ml) was added to the Ringer solution. After obtaining a baseline recording of 5 minutes duration, the cultures were stimulated by adding an equal volume of Ca^2+-free Ringer solution containing 100 μM UTP. Light production from the luciferin-luciferase reaction was imaged by a liquid nitrogen-cooled CCD camera (VersArray 1300B, Princeton Instruments), using a 20× oil lens (N.A. 0.8, Olympus), 8×8 binning, and two seconds integration. ATP content in samples collected from cultures grown in 24-well tissue culture plates was measured using a Victor2 plate reader (Wallac) (Cotrina et al., Proc. Natl. Acad. Sci. 95:15735-15740 (1998), which is hereby incorporated by reference in its entirety) and normalized to the protein content (BioRad) or to the cell number. A minimum of 8 independent experiments was evaluated (n≧8, most >20). When drugs or serum were used, the standards were adjusted to containing an equivalent amount. […]

For `Nc1nc(Cl)nc2c1ncn2[C@@H]1O[C@H](COP(=O)(O)OP(=O)(O)OP(=O)(O)O)[C@@H](O)[C@H]1O` [2-Cl-ATP, 2-chloro-adenosine triphosphate], the “increase of Ca2+i by purine receptor agonists” value (from here on “increase of Ca2+i”) in the test on neural progenitor cells was “increased Ca^2+i with roughly equal potency”. Also, the “proliferation (BrdU incorporation)” value in the test with neural stem cells is given as “comparable effects”. Consider `CSc1nc(N)c2ncn([C@@H]3O[C@H](COP(=O)(O)OP(=O)(O)OP(=O)(O)O)[C@@H](O)[C@H]3O)c2n1` [2-MeSATP, 2-methylthio-adenosine triphosphate], for which, in the test with neural progenitor cells, the “increase of Ca2+i” value was “increased Ca^2+i with roughly equal potency” and the “effect of removal of extracellular Ca2+ on the Ca2+ response to the agonist” value was “did not significantly decrease”. As for `Nc1ncnc2c1ncn2[C@@H]1O[C@H](COP(=O)(O)OP(=O)(O)O)[C@@H](O)[C@H]1O` [ADP, adenosine diphosphate], the “increase of Ca2+i” value with neural progenitor cells is reported as “increased Ca^2+i with roughly equal potency”. The “proliferation (BrdU incorporation)” value in the test with neural stem cells is on record as “comparable effects”. As for `Nc1ncnc2c1ncn2[C@@H]1O[C@H](COP(=O)(O)CP(=O)(O)O)[C@@H](O)[C@H]1O` [AMPCP, α,β-methyl adenosine diphosphate], the “proliferation (BrdU incorporation)” value with neural stem cells is recorded as “potently enhanced”. `Nc1ncnc2c1ncn2[C@@H]1O[C@H](COP(=O)(O)OP(=O)(O)OP(=O)(O)O)[C@@H](O)[C@H]1O` [ATP, adenosine triphosphate]: the “Ca2+ response” value in the test on neural progenitor cells (100 μM, cultures younger than 2 days in vitro) is “Transient increments in Ca^2+ were triggered”. Besides, in the test on neural progenitor cells, the “increase of Ca2+i” value is given as “increased Ca^2+i with roughly equal potency” and the “effect of removal of extracellular Ca2+ on the Ca2+ response to the agonist” value is on record as “did not significantly decrease”. For the same compound, in the test on neural stem cells, the “concentration at which proliferation peaked” value was 100 µM and the “proliferation (BrdU incorporation)” value is given as “increased proliferation in a dose-dependent manner”. For the compound `CCNC(=O)[C@H]1O[C@@H](n2cnc3c(N)ncnc32)[C@H](O)[C@@H]1O` [NECA], in the test on neural stem cells, the “proliferation (BrdU incorporation)” value is “failed to stimulate proliferation”. Take `O=c1ccn([C@@H]2O[C@H](COP(=O)(O)OP(=O)(O)OP(=O)(O)O)[C@@H](O)[C@H]2O)c(=O)[nH]1` [UTP, uridine triphosphate]: in the test with neural progenitor cells, the “increase of Ca2+i” value is “increased Ca^2+i with roughly equal potency”. The “ATP release from neural spheres, bioluminescence imaging” value in test [1] (100 μM, neural spheres) was “frequent point-source bursts of light emission”. Also, the “ATP release evoked by purine receptor activation” value in test [1] (neuroepithelial cells, first 2 days in vitro) was “evoked robust ATP release”. Further, the “proliferation (BrdU incorporation)” value with neural stem cells is recorded as “comparable effects”. For the compound `Nc1ncnc2c1ncn2[C@@H]1O[C@H](CO)[C@@H](O)[C@H]1O` [adenosine], the “proliferation (BrdU incorporation)” value with neural stem cells is on record as “failed to stimulate proliferation”. Take `Nc1ncnc2c1ncn2[C@@H](C=O)O[C@@H](C=O)COP(=O)(O)OP(=O)(O)OP(=O)(O)O` [oxidized ATP, periodate oxidized adenosine 5′-triphosphate]: the “reduction of ATP-evoked Ca2+ responses” value with neural progenitor cells (300 μM, 1 hr, p=0.4, Student's t test) is given as “did not significantly reduce”. On to `Nc1ncnc2c1ncn2[C@@H]1O[C@H](COP(=O)(O)CP(=O)(O)OP(=O)(O)O)[C@@H](O)[C@H]1O` [αβATP], for which, in the test with neural progenitor cells, the “increase of Ca2+i” value is recorded as “failed to evoke Ca^2+ responses”. Consider `Nc1ncnc2c1ncn2[C@@H]1O[C@H](COP(=O)(O)OP(=O)(O)OP(O)(O)=S)[C@@H](O)[C@H]1O` [γSATP, γ-thio-adenosine triphosphate], for which the “increase of Ca2+i” value in the test on neural progenitor cells was “increased Ca^2+i with roughly equal potency”. In addition, the “proliferation (BrdU incorporation)” value in the test with neural stem cells is recorded as “comparable effects”. For the compound apyrase, the “proliferation (BrdU incorporation)” value in the test with neural stem cells is given as “inhibited proliferation”.

Source of the values: patent publication US7829332B2, “Purines are self-renewal signals for neural stem cells, and purine receptor antagonists promote neuronal and glial differentiation therefrom” (Cornell Research Foundation, Inc., priority 2004, dated 2010).
